Assay results as given in patent US10624897B2, “Chlorobenzene substituted azaaryl compounds” (TAIPEI MEDICAL UNIVERSITY, priority 2015, dated 2020).

Experiments:
Assay in all cases: Kinase binding assay (Kd)
PLK1 = target: T1, PLK1 (Homo sapiens, UniProt P53350)
T1 construct: made in house; host or cells: E. coli BL21-derived host (T7 phage) or HEK-293
Protocol: (§1) Kinase assays. For most assays, kinase-tagged T7 phage strains were prepared in an E. coli host derived from the BL21 strain. E. coli were grown to log-phase and infected with T7 phage and incubated with shaking at 32° C. until lysis. The lysates were centrifuged and filtered to remove cell debris. The remaining kinases were produced in HEK-293 cells and subsequently tagged with DNA for qPCR detection. […] The liganded beads were blocked with excess biotin and washed with blocking buffer (SeaBlock (Pierce), 1% BSA, 0.05% Tween 20, 1 mM DTT) to remove unbound ligand and to reduce non-specific binding. […] All reactions were performed in polystyrene 96-well plates in a final volume of 0.135 ml. […] The kinase concentration in the eluates was measured by qPCR.
(§2) An 11-point 3-fold serial dilution of each test compound was prepared in 100% DMSO at 100× final test concentration and subsequently diluted to 1× in the assay (final DMSO concentration=1%). Most Kds were determined using a compound top concentration=30,000 nM.
(§3) Binding constants (Kds) were calculated with a standard dose-response curve using the Hill equation: […]
(§4) The Hill Slope was set to −1. Curves were fitted using a non-linear least square fit with the Levenberg-Marquardt algorithm.

PDGFRA = target: T2, PDGFRA (Homo sapiens, UniProt P16234)
T2 construct: made in house; host or cells: E. coli BL21-derived host (T7 phage) for most kinases, HEK-293 for the rest
Protocol: as §1, §2, §3, §4

ADCK3 = target: T3, ADCK3 (Homo sapiens, UniProt Q8NI60)
T3 construct: made in house; host or cells: E. coli BL21-derived host (T7 phage) or HEK-293
Protocol: as §1, §2, §3, §4

MAPKAPK2 = target: T4, MAPKAPK2 (Homo sapiens, UniProt P49137)
T4 construct: made in house; host or cells: E. coli BL21-derived host (T7 phage) for most kinases, HEK-293 for the rest
T4 sequence (P49137 whole entry): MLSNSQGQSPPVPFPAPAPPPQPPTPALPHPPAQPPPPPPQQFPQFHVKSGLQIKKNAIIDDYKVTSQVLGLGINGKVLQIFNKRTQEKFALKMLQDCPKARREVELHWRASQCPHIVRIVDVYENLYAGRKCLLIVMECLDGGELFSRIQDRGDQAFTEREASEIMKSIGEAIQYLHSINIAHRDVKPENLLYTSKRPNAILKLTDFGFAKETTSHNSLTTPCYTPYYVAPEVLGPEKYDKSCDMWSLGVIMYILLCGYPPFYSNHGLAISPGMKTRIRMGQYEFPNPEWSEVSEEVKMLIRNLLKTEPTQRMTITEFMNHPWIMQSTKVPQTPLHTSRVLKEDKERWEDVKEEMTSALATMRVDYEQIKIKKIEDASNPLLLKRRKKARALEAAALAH
Protocol: as §1, §2, §3, §4

MEK2 = target: T5, MEK2 (Homo sapiens, UniProt P36507)
T5 construct: made in house; host or cells: E. coli BL21-derived host (T7 phage) for most kinases, HEK-293 for the rest
Protocol: as §1, §2, §3, §4

FGFR1 = target: T6, FGFR1 (Homo sapiens, UniProt P11362)
T6 construct: made in house; host or cells: E. coli BL21-derived host (T7 phage) or HEK-293
Protocol: as §1, §2, §3, §4

BRAF = target: T7, BRAF (Homo sapiens, UniProt P15056)
T7 construct: made in house; host or cells: E. coli BL21-derived host (T7 phage) or HEK-293
T7 sequence (P15056 whole entry): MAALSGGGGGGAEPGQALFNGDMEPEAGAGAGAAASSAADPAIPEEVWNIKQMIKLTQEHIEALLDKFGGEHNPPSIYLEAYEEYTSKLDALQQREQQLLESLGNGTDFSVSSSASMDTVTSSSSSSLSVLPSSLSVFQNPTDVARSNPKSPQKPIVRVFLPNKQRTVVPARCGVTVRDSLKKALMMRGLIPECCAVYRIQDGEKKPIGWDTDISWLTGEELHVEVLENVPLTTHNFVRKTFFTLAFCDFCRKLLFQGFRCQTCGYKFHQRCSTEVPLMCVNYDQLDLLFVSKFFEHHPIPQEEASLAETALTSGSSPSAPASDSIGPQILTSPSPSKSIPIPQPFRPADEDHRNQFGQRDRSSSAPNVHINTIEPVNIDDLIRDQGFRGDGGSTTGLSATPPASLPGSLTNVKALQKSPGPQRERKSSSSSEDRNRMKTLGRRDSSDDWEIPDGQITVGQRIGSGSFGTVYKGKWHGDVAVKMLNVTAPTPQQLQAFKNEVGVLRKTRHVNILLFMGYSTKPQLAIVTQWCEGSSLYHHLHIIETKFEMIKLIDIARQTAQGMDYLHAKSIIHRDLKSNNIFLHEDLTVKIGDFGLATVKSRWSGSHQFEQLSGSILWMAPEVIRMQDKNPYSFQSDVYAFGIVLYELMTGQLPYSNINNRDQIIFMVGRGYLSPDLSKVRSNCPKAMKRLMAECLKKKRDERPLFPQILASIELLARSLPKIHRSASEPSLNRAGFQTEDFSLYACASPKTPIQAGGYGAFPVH
Protocol: as §1, §2, §3, §4

PIM2 = target: T8, PIM2 (Homo sapiens, UniProt Q9P1W9)
T8 construct: made in house; host or cells: E. coli BL21-derived host (T7 phage) for most kinases, HEK-293 for the rest
T8 sequence (Q9P1W9 whole entry): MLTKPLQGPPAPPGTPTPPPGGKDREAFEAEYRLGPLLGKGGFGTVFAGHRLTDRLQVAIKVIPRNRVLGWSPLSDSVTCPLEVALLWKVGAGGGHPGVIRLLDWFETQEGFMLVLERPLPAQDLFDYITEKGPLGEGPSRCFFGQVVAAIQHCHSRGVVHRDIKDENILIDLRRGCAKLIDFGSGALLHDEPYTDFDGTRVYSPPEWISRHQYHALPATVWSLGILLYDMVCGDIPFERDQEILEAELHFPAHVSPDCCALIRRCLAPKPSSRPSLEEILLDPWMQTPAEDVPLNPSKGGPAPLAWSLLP
Protocol: as §1, §2, §3, §4

PLK3 = target: T9, PLK3 (Homo sapiens, UniProt Q9H4B4)
T9 construct: made in house; host or cells: E. coli BL21-derived host (T7 phage) or HEK-293
Protocol: as §1, §2, §3, §4

VEGFR2 = target: T10, VEGFR2 (Homo sapiens, UniProt P35968)
T10 construct: made in house; host or cells: E. coli BL21-derived host (T7 phage) or HEK-293
Protocol: as §1, §2, §3, §4

PDPK1 = target: T11, PDPK1 (Homo sapiens, UniProt O15530)
T11 construct: made in house; host or cells: E. coli BL21-derived host (T7 phage) for most kinases, HEK-293 for the rest
Protocol: as §1, §2, §3, §4

PIM3 = target: T12, PIM3 (Homo sapiens, UniProt Q86V86)
T12 construct: made in house; host or cells: E. coli BL21-derived host (T7 phage) or HEK-293
Protocol: as §1, §2, §3, §4

TYK2 = target: T13, TYK2 (Homo sapiens, UniProt P29597)
T13 construct: made in house; host or cells: E. coli BL21-derived host (T7 phage) or HEK-293
Protocol: as §1, §2, §3, §4

INSR = target: T14, INSR (Homo sapiens, UniProt P06213)
T14 construct: made in house; host or cells: E. coli BL21-derived host (T7 phage) for most kinases, HEK-293 for the rest
Protocol: as §1, §2, §3, §4

RET = target: T15, RET (Homo sapiens, UniProt P07949)
T15 construct: made in house; host or cells: E. coli BL21-derived host (T7 phage) or HEK-293
T15 sequence (P07949 29-1114): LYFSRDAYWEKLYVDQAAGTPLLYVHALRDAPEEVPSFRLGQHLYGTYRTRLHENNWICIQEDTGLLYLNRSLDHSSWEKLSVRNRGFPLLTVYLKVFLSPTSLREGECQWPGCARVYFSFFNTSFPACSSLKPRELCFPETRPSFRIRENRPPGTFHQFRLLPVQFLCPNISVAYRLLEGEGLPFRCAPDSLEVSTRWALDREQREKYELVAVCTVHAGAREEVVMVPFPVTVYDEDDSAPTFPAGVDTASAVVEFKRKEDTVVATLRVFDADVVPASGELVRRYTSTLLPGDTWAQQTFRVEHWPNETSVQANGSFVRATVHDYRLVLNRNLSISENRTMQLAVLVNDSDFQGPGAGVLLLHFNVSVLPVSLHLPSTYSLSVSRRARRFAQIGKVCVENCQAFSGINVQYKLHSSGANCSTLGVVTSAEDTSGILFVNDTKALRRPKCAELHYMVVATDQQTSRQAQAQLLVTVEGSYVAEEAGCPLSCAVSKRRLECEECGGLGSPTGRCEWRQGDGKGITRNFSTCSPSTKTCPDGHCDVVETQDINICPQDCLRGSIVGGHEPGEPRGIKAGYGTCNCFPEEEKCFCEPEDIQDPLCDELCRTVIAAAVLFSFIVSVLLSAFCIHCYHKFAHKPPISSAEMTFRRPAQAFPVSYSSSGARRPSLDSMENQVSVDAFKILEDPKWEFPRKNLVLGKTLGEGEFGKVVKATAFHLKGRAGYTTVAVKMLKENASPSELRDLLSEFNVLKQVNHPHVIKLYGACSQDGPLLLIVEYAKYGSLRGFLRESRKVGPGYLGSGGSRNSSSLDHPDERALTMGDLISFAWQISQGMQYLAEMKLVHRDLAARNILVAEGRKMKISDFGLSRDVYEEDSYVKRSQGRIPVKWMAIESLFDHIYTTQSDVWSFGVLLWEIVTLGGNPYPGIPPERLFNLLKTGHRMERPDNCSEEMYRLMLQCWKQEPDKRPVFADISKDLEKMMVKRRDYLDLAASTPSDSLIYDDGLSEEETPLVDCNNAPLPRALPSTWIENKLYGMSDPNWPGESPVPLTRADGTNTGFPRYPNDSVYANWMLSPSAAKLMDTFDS
Protocol: as §1, §2, §3, §4

BMPR2 = target: T16, BMPR2 (Homo sapiens, UniProt Q13873)
T16 construct: made in house; host or cells: E. coli BL21-derived host (T7 phage) or HEK-293
Protocol: as §1, §2, §3, §4

GSK3B = target: T17, GSK3B (Homo sapiens, UniProt P49841)
T17 construct: made in house; host or cells: E. coli BL21-derived host (T7 phage) for most kinases, HEK-293 for the rest
Protocol: as §1, §2, §3, §4

TGFBR1 = target: T18, TGFBR1 (Homo sapiens, UniProt P36897)
T18 construct: made in house; host or cells: E. coli BL21-derived host (T7 phage) or HEK-293
Protocol: as §1, §2, §3, §4

PIK3CG = target: T19, PIK3CG (Homo sapiens, UniProt P48736)
T19 construct: made in house; host or cells: E. coli BL21-derived host (T7 phage) for most kinases, HEK-293 for the rest
Protocol: as §1, §2, §3, §4

ERBB4 = target: T20, ERBB4 (Homo sapiens, UniProt Q15303)
T20 construct: made in house; host or cells: E. coli BL21-derived host (T7 phage) for most kinases, HEK-293 for the rest
Protocol: as §1, §2, §3, §4

ACVR1B = target: T21, ACVR1B (Homo sapiens, UniProt P36896)
T21 construct: made in house; host or cells: E. coli BL21-derived host (T7 phage) or HEK-293
Protocol: as §1, §2, §3, §4

AKT1 = target: T22, AKT1 (Homo sapiens, UniProt P31749)
T22 construct: made in house; host or cells: E. coli BL21-derived host (T7 phage) or HEK-293
Protocol: as §1, §2, §3, §4

p38-beta = target: T23, p38-beta (Homo sapiens, UniProt Q15759)
T23 construct: made in house; host or cells: E. coli BL21-derived host (T7 phage) for most kinases, HEK-293 for the rest
Protocol: as §1, §2, §3, §4

ROCK2 = target: T24, ROCK2 (Homo sapiens, UniProt O75116)
T24 construct: made in house; host or cells: E. coli BL21-derived host (T7 phage) or HEK-293
Protocol: as §1, §2, §3, §4

TSSK1B = target: T25, TSSK1B (Homo sapiens, UniProt Q9BXA7)
T25 construct: made in house; host or cells: E. coli BL21-derived host (T7 phage) or HEK-293
Protocol: as §1, §2, §3, §4

IGF1R = target: T26, IGF1R (Homo sapiens, UniProt P08069)
T26 construct: made in house; host or cells: E. coli BL21-derived host (T7 phage) for most kinases, HEK-293 for the rest
Protocol: as §1, §2, §3, §4

MLK1 = target: T27, MLK1 (Homo sapiens, UniProt P80192)
T27 construct: made in house; host or cells: E. coli BL21-derived host (T7 phage) for most kinases, HEK-293 for the rest
Protocol: as §1, §2, §3, §4

BTK = target: T28, BTK (Homo sapiens, UniProt Q06187)
T28 construct: made in house; host or cells: E. coli BL21-derived host (T7 phage) or HEK-293
Protocol: as §1, §2, §3, §4

FLT3 = target: T29, FLT3 (Homo sapiens, UniProt P36888)
T29 construct: made in house; host or cells: E. coli BL21-derived host (T7 phage) or HEK-293
Protocol: as §1, §2, §3, §4

PDGFRB = target: T30, PDGFRB (Homo sapiens, UniProt P09619)
T30 construct: made in house; host or cells: E. coli BL21-derived host (T7 phage) or HEK-293
T30 sequence (P09619 33-1106): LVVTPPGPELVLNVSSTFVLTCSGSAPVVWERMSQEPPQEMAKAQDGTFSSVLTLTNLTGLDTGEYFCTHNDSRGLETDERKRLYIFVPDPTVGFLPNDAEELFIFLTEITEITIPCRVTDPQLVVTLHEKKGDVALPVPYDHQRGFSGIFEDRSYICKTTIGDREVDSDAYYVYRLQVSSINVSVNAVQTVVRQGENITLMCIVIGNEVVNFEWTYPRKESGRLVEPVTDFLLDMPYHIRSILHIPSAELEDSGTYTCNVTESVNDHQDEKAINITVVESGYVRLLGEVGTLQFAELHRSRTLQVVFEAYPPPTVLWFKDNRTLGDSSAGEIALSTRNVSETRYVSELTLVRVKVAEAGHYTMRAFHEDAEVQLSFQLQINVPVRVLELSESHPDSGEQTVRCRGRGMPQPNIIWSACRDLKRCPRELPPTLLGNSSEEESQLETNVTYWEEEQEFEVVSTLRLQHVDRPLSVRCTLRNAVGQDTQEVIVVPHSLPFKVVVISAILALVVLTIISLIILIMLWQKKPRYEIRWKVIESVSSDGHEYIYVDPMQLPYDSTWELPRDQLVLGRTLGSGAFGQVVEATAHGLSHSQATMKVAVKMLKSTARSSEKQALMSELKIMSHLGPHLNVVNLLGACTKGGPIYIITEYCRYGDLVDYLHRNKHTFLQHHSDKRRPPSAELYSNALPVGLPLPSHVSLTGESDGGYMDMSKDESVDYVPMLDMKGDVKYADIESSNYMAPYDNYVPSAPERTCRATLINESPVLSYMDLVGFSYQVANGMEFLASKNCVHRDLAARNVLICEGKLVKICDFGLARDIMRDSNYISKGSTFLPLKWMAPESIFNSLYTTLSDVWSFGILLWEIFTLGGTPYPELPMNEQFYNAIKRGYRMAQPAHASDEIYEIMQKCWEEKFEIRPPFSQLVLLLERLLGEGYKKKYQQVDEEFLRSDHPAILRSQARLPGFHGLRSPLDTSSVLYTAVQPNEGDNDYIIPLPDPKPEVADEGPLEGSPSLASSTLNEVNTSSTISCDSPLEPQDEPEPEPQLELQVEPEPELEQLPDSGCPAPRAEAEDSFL
Protocol: as §1, §2, §3, §4

MKNK1 = target: T31, MKNK1 (Homo sapiens, UniProt Q9BUB5)
T31 construct: made in house; host or cells: E. coli BL21-derived host (T7 phage) for most kinases, HEK-293 for the rest
Protocol: as §1, §2, §3, §4

AKT2 = target: T32, AKT2 (Homo sapiens, UniProt P31751)
T32 construct: made in house; host or cells: E. coli BL21-derived host (T7 phage) or HEK-293
T32 sequence (P31751 whole entry): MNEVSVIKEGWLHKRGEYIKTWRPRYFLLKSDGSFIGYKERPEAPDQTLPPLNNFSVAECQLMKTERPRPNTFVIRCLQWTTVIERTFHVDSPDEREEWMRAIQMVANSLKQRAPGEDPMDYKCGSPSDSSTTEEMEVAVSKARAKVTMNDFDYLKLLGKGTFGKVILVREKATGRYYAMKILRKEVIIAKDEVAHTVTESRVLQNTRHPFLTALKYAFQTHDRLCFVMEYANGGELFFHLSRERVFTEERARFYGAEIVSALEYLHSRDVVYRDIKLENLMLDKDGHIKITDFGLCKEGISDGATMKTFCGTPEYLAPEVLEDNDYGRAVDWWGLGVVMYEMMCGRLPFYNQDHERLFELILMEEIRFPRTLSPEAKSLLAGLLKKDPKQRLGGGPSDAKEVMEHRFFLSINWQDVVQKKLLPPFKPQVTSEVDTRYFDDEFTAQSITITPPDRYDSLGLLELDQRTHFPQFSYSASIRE
Protocol: as §1, §2, §3, §4

CSF1R = target: T33, CSF1R (Homo sapiens, UniProt P07333)
T33 construct: made in house; host or cells: E. coli BL21-derived host (T7 phage) or HEK-293
T33 sequence (P07333 20-972): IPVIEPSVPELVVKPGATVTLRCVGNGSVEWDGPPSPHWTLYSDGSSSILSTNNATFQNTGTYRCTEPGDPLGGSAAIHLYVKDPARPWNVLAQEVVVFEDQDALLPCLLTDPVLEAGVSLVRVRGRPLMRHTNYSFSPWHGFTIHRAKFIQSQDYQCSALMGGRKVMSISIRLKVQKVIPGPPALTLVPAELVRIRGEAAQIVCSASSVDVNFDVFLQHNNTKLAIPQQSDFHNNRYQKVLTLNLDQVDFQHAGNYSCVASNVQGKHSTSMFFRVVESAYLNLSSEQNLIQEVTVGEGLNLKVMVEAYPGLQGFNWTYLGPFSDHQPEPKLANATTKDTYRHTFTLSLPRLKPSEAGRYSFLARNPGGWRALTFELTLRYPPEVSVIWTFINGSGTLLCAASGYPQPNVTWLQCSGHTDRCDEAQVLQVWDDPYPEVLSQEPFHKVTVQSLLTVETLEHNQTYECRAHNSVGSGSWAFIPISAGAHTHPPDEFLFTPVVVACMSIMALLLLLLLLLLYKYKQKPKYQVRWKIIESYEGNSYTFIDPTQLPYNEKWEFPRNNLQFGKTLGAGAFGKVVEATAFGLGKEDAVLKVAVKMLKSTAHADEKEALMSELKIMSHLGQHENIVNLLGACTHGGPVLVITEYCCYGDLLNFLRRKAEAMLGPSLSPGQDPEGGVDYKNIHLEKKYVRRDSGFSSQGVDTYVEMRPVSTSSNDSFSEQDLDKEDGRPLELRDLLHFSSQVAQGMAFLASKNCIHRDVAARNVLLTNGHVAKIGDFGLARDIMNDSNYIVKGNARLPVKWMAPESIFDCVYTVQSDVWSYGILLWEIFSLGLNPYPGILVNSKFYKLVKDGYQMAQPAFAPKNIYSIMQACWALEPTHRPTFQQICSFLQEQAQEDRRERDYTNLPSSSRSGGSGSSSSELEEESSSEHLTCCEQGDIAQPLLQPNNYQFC
Protocol: as §1, §2, §3, §4

YANK3 = target: T34, YANK3 (Homo sapiens, UniProt Q86UX6)
T34 construct: made in house; host or cells: E. coli BL21-derived host (T7 phage) or HEK-293
Protocol: as §1, §2, §3, §4

CSNK1D = target: T35, CSNK1D (Homo sapiens, UniProt P48730)
T35 construct: made in house; host or cells: E. coli BL21-derived host (T7 phage) or HEK-293
Protocol: as §1, §2, §3, §4

CDK9 = target: T36, CDK9 (Homo sapiens, UniProt P50750)
T36 construct: made in house; host or cells: E. coli BL21-derived host (T7 phage) or HEK-293
Protocol: as §1, §2, §3, §4

PIM1 = target: T37, PIM1 (Homo sapiens, UniProt P11309)
T37 construct: made in house; host or cells: E. coli BL21-derived host (T7 phage) for most kinases, HEK-293 for the rest
Protocol: as §1, §2, §3, §4

Kd (PLK1): > 10 µM | Kd (PDGFRA): > 10 µM | Kd (ADCK3): > 10 µM | Kd (MAPKAPK2): > 10 µM | Kd (MEK2): > 10 µM | Kd (FGFR1): 0.13 µM | Kd (BRAF): > 10 µM | Kd (PIM2): > 10 µM | Kd (PLK3): > 10 µM | Kd (VEGFR2): 3.1 µM | Kd (PDPK1): > 10 µM | Kd (PIM3): > 10 µM | Kd (TYK2): 0.66 µM | Kd (INSR): > 10 µM | Kd (RET): > 10 µM | Kd (BMPR2): > 10 µM | Kd (GSK3B): > 10 µM | Kd (TGFBR1): > 10 µM | Kd (PIK3CG): > 10 µM | Kd (ERBB4): > 10 µM | Kd (ACVR1B): > 10 µM | Kd (AKT1): > 10 µM | Kd (p38-beta): > 10 µM | Kd (ROCK2): > 10 µM | Kd (TSSK1B): > 10 µM | Kd (IGF1R): > 10 µM | Kd (MLK1): > 10 µM | Kd (BTK): > 10 µM | Kd (FLT3): 1.3 µM | Kd (PDGFRB): 0.68 µM | Kd (MKNK1): > 10 µM | Kd (AKT2): > 10 µM | Kd (CSF1R): 0.34 µM | Kd (YANK3): > 10 µM | Kd (CSNK1D): > 10 µM | Kd (CDK9): > 10 µM | Kd (PIM1): > 10 µM
SMILES: CCN1CCN(c2ccc(Nc3ncnc(N(C)C(=O)Nc4c(Cl)c(OC)c(Cl)c(OC)c4Cl)n3)cc2)CC1 [MPT0L145, 1-(4-((4-(4-ethylpiperazin-1-yl)phenyl)amino)-1,3,5-triazin-2-yl)-1-methyl-3-(2,4,6-trichloro-3,5-dimethoxyphenyl)urea]
